Drawing on patent US20250145589A1, “PYRIDINE DERIVATIVE AND USE THEREOF” (SICHUAN HUIYU PHARMACEUTICAL CO., LTD., priority 2021, published 2025), this text covers IC50 for seven compounds.

The target in one test is PI3Kα (Homo sapiens (Human), UniProt P42336). Put plainly: Inhibition of PI3Kα efficacy assay (ADP-Glo kinase assay). The class given is biochemical. The settings on record: Table 4; read-out: PI3Kα inhibitory activity (IC50). The gist of the method: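 ADP-Glo luminescent detection of ADP from PI3Kα acting on PI substrate with ATP, 60 min at RT; compounds in 8-point five-fold serial dilution from 2 mM DMSO stock. IC50 from four-parameter variable-slope fit.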
In general terms: ADP-Glo turns the ADP formed in a reaction into a luminescent signal.

Another test has as its target PI3Kδ (Homo sapiens (Human), UniProt O00329). Put plainly: Inhibition of PI3Kδ efficacy assay (ADP-Glo kinase assay). As to conditions: Table 4; read-out: PI3Kδ inhibitory activity (IC50). It is filed as biochemical. The gist of the method:
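Luminescent ADP-Glo readout of PI3Kδ: after a 60 min RT reaction with PI/ATP substrate, ATP depletion (40 min) and ADP detection (40 min) steps followed. Compounds tested as eight five-fold serial dilutions; inhibition rates fitted to log(inhibitor) vs. response, variable slope, for IC50.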

Another test deals with KRAS^G12C-SOS1 (Homo sapiens (Human), UniProt P01116, G12C). Briefly: HTRF KRAS G12C/SOS1 binding assay. As to conditions: Table 5. The gist of the method: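 Compound was serially diluted five-fold over eight points, with a 2 mM DMSO stock. After anti-tag-Tb3+ and anti-tag-XL665 were added, plates were incubated 3 h at 4 °C and read by HTRF (ex 337 nm, em 620/665 nm ratio). IC50 values come from four-parameter variable-slope fits.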
A general note: In TR-FRET formats the signal depends on donor and acceptor labels being close together.

Test [1] has as its system MIA PaCa-2 cells (KRAS G12C mutant). Briefly: MIA PaCa-2 cell anti-proliferation (CellTiter-Glo). The class given is cell-based. As to conditions: Homo sapiens, 72 h; MIA Paca-2 cells, 3 days, Table 7; read-out: MIA PaCa-2 (IC50). A digest of the protocol: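 Viable-cell luminescence (CellTiter-Glo, ≥30 min at 25 °C) measured after a 3-day, 37 °C exposure to compounds at 9 points, 4-fold spaced, in DMEM containing 10% FBS plus 2.5% horse serum. IC50 derived versus no-inhibitor wells.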
(In general: Cellular ATP, detected with luciferase, serves as a proxy for viable cell number.)

Test [2] has as its system NCI-H358-AMGR drug-resistant cell line. Put plainly: NCI-H358-AMGR drug-resistant cell proliferation inhibitory activity test. It is filed as cell-based. The settings on record: 72 h; NCI-H358-AMGR drug-resistant cells, 3 days incubation, CellTiter-Glo. A digest of the protocol: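 Luminescent CellTiter-Glo read-out after 3-day, 37° C compound exposure (8 points, 5-fold series) of AMG510-resistant NCI-H358 cells plated at 4×10^3 per well.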

Chain of KRAS^G12C-SOS1 (P01116-2 other isoform, or with tags, fused parts or gaps G12C): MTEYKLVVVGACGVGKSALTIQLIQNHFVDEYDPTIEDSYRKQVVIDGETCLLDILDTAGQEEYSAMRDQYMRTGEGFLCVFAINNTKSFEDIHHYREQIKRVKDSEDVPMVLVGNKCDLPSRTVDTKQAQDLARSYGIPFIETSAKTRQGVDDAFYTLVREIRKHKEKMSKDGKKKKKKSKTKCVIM
Chain of PI3Kδ (O00329 whole entry): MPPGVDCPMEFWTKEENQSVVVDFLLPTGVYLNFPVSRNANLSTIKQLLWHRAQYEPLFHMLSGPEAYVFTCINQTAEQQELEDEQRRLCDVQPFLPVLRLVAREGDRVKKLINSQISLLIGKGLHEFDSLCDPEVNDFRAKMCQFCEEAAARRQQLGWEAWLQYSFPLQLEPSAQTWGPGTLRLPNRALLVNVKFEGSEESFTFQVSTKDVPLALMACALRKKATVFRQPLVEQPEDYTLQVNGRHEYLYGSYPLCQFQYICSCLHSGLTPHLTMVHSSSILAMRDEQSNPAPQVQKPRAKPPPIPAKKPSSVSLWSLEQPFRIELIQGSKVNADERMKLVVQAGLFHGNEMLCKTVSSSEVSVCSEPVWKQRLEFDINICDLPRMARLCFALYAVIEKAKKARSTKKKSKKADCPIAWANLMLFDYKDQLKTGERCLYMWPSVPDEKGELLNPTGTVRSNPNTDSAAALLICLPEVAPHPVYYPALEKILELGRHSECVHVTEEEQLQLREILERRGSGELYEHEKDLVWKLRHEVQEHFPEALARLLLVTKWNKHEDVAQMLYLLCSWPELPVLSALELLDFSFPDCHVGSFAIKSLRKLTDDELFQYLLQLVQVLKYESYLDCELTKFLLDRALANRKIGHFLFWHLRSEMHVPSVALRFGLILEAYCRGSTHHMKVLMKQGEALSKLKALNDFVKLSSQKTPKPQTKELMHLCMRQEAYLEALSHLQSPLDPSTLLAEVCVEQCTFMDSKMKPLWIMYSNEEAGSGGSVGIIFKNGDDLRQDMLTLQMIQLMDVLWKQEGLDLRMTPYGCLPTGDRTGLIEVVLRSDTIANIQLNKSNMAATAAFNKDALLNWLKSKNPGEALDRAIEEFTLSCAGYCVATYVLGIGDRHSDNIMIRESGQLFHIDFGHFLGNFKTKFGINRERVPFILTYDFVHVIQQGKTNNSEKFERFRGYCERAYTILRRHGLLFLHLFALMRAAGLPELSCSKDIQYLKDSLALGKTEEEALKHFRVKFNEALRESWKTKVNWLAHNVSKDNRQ
Chain of PI3Kδ (P27986 whole entry partner): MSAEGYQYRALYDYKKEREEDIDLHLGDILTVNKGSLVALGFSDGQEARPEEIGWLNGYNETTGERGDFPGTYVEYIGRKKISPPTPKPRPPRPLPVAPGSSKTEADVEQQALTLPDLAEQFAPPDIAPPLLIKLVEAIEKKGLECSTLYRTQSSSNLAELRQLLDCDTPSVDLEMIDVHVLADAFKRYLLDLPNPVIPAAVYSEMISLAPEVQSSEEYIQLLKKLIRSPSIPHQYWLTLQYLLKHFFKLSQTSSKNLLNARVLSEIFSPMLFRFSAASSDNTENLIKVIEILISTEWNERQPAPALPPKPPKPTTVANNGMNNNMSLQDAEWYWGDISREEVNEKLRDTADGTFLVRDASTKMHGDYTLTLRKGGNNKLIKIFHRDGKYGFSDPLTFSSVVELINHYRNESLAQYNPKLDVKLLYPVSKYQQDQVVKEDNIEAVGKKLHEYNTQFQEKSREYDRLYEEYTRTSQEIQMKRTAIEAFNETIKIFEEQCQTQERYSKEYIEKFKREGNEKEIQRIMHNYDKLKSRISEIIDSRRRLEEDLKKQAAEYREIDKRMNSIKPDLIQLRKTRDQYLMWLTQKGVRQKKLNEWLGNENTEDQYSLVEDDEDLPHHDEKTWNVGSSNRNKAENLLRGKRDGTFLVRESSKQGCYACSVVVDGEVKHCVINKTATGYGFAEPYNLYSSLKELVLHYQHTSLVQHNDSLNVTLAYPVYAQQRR
Chain of PI3Kα (P42336 whole entry): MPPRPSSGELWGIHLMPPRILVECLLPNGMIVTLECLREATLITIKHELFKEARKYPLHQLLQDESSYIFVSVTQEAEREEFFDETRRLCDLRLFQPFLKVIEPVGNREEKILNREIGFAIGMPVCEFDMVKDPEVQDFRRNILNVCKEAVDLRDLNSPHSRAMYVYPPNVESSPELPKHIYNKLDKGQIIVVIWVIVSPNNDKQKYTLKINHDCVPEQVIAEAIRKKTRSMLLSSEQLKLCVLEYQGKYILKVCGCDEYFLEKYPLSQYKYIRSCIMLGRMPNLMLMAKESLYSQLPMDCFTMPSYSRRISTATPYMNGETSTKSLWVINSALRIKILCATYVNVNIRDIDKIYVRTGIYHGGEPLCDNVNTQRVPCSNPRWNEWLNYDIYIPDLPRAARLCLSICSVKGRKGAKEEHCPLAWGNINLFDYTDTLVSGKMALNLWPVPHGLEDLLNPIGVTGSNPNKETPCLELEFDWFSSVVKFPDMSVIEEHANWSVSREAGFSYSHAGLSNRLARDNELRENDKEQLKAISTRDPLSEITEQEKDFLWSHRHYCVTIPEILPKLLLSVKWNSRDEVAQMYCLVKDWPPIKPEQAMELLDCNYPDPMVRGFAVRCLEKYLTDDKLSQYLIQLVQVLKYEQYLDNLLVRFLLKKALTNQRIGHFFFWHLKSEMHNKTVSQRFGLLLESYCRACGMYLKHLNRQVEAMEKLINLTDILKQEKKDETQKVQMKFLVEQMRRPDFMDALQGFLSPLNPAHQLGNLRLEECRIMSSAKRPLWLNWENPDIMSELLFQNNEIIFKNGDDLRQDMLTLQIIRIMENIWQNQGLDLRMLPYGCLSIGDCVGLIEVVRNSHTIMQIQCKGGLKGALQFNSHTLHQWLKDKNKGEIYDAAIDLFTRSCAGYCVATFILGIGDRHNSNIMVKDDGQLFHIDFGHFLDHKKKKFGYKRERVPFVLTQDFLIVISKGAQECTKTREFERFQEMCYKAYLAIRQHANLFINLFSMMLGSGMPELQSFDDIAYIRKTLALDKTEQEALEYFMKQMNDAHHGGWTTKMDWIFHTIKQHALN
Chain of PI3Kα (P27986 whole entry partner): as the sequence (P27986 whole entry partner) above

`COc1ncc(-c2ccc3ncnc(N4CCN(C(=O)/C=C/C(C)=O)CC4)c3c2)cc1NS(=O)(=O)c1ccncc1C` [Example 172, (E)-N-(2-methoxy-5-(4-(4-(4-oxopent-2-enoyl)piperazin-1-yl)quinazolin-6-yl)pyridin-3-yl)-3-methyl-pyridine-4-sulfonamide]: the IC50 (as a rule, the point on the concentration scale where inhibition reaches its midpoint) on PI3Kα came out at 4.1 nM; at PI3Kδ, 11.3 nM; at KRAS^G12C-SOS1 it was 622 nM; in test [1] it was 171 nM; in test [2], 451 nM.
In the case of `COc1ncc(-c2ccc3ncnc(N4CCN(C(=O)/C=C/C(C)=O)C[C@@H]4C)c3c2)cc1NS(=O)(=O)c1sc(C)nc1C` [Example 173, (S,E)-N-(2-methoxy-5-(4-(2-methyl-4-(4-oxopent-2-enoyl)piperazin-1-yl)quinazolin-6-yl)pyridin-3-yl)-2,4-dimethyl-thiazole-5-sulfonamide], the IC50 stood at 2.2 nM at PI3Kα; 16.5 nM at PI3Kδ; 199 nM at KRAS^G12C-SOS1; 9.2 nM in test [1]; 54.7 nM in test [2].
As to `COc1ncc(-c2ccc3ncnc(N4CCN(C(=O)/C=C/C(C)=O)C[C@@H]4C)c3c2)cc1NS(=O)(=O)c1ccc(F)cc1Cl` [Example 174, (S,E)-2-chloro-4-fluoro-N-(2-methoxy-5-(4-(2-methyl-4-(4-oxopent-2-enoyl)piperazin-1-yl)quinazolin-6-yl)pyridin-3-yl)benzene-sulfonamide], the IC50 on PI3Kα was determined as 3.5 nM; at PI3Kδ it was 17.1 nM; on KRAS^G12C-SOS1, 423 nM; in test [1], 15.6 nM; in test [2] it was 28.6 nM.
The like results for `COc1ncc(-c2ccc3ncnc(N4CC5CCC(C4)N5C(=O)/C=C/C(C)=O)c3c2)cc1NS(=O)(=O)c1ccc(F)cc1Cl` [Example 175, 2-chloro-4-fluoro-N-(2-methoxy-5-(4-(8-((E)-4-oxopent-2-enoyl)-3,8-diazabicyclo [3.2.1]octan-3-yl)quinazolin-6-yl)pyridin-3-yl)benzene-sulfonamide] were, in that order, 6 nM, 16.2 nM, 288 nM, 22.8 nM and 58.1 nM.
The corresponding values for `COc1ncc(-c2ccc3ncnc(N4CC5CCC(C4)N5C(=O)/C=C/C(C)=O)c3c2)cc1NS(=O)(=O)c1sc(C)nc1C` [Example 176, N-(2-methoxy-5-(4-(8-((E)-4-oxopent-2-enoyl)-3,8-diazabicyclo [3.2.1]octan-3-yl)quinazolin-6-yl)pyridin-3-yl)-2,4-dimethyl-thiazole-5-sulfonamide] are 2.6 nM, 13.9 nM, 113 nM, 29.3 nM and 76.1 nM.
Regarding `COc1ncc(-c2ccc3ncnc(N4CCN(C(=O)/C=C/C(C)=O)CC4)c3c2)cc1NS(=O)(=O)c1ccc(Cl)cc1F` [Example 177, (E)-4-chloro-2-fluoro-N-(2-methoxy-5-(4-(4-(4-oxopent-2-enoyl)piperazin-1-yl)quinazolin-6-yl)pyridin-3-yl)benzene-sulfonamide], the IC50 on PI3Kα came out at 5 nM; at PI3Kδ, 19.1 nM; on KRAS^G12C-SOS1, 246 nM; in test [1], 25.9 nM; in test [2], 48.9 nM.
In the case of `COc1ncc(-c2ccc3ncnc(N4CCC5(CC4)CN(C(=O)/C=C/C(C)=O)C5)c3c2)cc1NS(=O)(=O)c1sc(C)nc1C` [Example 178, (E)-N-(2-methoxy-5-(4-(2-(4-oxopent-2-enoyl)-2,7-diazaspiro[3.5]nonan-7-yl)quinazolin-6-yl)pyridin-3-yl)-2,4-dimethyl-thiazole-5-sulfonamide], the half-inhibitory concentration (IC50) on PI3Kα came out at 20.5 nM; on PI3Kδ, 9.2 nM; at KRAS^G12C-SOS1, 213 nM; in test [1], 43.1 nM; in test [2], 66.2 nM.
